Assay results: article PMC6133997, “Glutamic acid is a carrier for hydrazine during the biosyntheses of fosfazinomycin and kinamycin” (Nature Communications, 2018)

Tests used:
KinL = molecular target: T1, KinL (Streptomyces murayamaensis, UniProt A0A385LSP3); test: LC-HRMS of culture supernatant of E. coli expressing KinL; assay type: cell-based; conditions: 1 mM acetylhydrazine, 1 mM glutamic acid, 15 °C overnight; empty-vector control
T1 construct: pET28a in live E. coli BL21(DE3), not purified
T1 sequence (A0A385LSP3 1-500): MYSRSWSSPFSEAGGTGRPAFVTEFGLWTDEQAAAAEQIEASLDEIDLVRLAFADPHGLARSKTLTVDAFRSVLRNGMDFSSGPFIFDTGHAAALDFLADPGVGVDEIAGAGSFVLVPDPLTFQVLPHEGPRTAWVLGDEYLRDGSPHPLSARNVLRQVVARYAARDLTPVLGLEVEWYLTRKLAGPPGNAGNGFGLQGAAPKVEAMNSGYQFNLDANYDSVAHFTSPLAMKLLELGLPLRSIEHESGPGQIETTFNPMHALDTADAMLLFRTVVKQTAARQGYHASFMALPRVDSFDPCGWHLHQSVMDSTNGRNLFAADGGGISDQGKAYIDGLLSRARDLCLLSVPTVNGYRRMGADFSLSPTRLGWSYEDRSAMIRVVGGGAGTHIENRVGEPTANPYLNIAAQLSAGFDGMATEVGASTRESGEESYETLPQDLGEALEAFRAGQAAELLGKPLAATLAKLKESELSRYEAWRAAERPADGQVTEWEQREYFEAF

FzmA = conditions: 21 µM enzyme, 5 mM substrate, 5 mM arginine, 6 mM MgCl2, 6 mM ATP, 50 mM NaH2PO4 pH 7.7, 21 h; hydrolysis to glutamic acid
Chain of FzmA (U5YQM4 entry or part of it): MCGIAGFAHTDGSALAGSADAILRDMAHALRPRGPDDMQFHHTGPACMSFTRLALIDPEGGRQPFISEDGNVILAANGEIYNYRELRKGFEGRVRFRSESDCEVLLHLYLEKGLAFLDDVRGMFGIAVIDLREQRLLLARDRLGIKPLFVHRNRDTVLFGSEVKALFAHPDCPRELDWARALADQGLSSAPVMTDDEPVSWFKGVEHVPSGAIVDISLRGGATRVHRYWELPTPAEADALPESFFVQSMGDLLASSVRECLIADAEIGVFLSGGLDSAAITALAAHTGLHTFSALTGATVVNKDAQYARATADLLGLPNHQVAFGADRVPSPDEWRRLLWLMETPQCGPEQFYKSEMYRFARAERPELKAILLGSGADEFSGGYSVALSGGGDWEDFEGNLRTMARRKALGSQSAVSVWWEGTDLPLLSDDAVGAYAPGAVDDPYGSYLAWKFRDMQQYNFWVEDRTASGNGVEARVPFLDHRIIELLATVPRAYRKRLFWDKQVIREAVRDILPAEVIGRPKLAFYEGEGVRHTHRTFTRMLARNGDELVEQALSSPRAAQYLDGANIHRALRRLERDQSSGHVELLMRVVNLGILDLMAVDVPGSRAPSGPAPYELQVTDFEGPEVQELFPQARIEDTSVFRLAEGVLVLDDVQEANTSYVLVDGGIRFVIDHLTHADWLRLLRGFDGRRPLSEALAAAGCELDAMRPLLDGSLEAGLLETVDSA

| Compound | LC-HRMS of culture supernatant of E. coli expressing KinL (KinL) | LC-MS after Fmoc-Cl derivatization (FzmA) |
| --- | --- | --- |
| CC(=O)NN [acetylhydrazine] | observed in culture supernatants only when KinL was expressed and acetylhydrazine was present | – |
| NNC(=O)CC[C@H](N)C(=O)O [compound 6, glutamylhydrazine] | – | FzmA clearly has the ability to liberate hydrazine from glutamylhydrazine |
